Earlier results on 1 molecule are cited in patent US7459141B2, “Technetium-99m-labeled organic germanium nanocolloids, method of preparing the same and use thereof” (Korea Atomic Energy Research Institute, priority 2006, dated 2008).

Turning to `O=C(O)C[CH2][Ge](=[O])[O][Ge](=[O])[CH2]CC(=O)O` [Ge-132, bis-carboxyethylgermanium sesquioxide], the “tissue concentration after an intravenous (i.v) injection” value (intravenous) is “concentrates in liver, kidney, spleen and gastrointestine tract”. Further, the “tissue concentration after an oral administration” value (oral) was “concentrates highly in spleen”.
